According to patent US12502430B2, “Compound for photodynamic therapy of cancer, composition including same, and method for photodynamic therapy of cancer” (Pukyong National University Industry-University Cooperation …, priority 2021, dated 2025):

Columns and labels:
[1] = Response and selectivity for detection of OCl− (UV-Vis and fluorescence); conditions: 20 μM; for isosbestic point in UV-vis titration with OCl−: NaClO 0 to 75 μM, PBS pH 7.4 with 50% THF; for selectivity for OCl− among ROS, RNS and metal ions: OCl− 60 μM, PBS pH 7.4/THF (5/5); for fluorescence wavelength at which intensity was read: PBS buffer 10 mM pH 7.4 containing 50% THF
Protocol: Fluorescence intensity ratios were measured for each of BS and NS in […] (10 mM, pH=7.4) containing 50% THF at the presence of OCl^− (60 μM), ROO·(1 mM), NO·(1 mM), H2O2 (1 mM), TBHP (1 mM), ONOO^− (100 μM), ·OH (200 μM) and various metal ions (200 μM): Ag^+, Hg^2+, Fe^2+, and other ions (Ni^2+, Cu^2+, Zn^2+, Cd^2+, Mg^2+, Ca^2+, Cr^3+, Mn^2+, Fe^3+, Li^+, Na^+, K^+, Cs^+). Recognition of ROS, RNS and metal cations by BS and NS was investigated through colorimetric changes, UV absorption and fluorescence emission changes in PBS 7.4 pH/THF (5/5).
Similarly, in FIG. 6C, the broad absorption band decreases in the 420 to 600 nm range of the NS solution, whereas the absorption band at 370 nm gradually increases with OCI^−-addition (a characteristic of NO).
In Scheme 3, the photophysical change by oxidative desulfurization from the C═S groups of BS and NS to the corresponding C═O groups of BO and NO by hypochlorous acid (OCl^−) may be shown.

HeLa cells [2] = assay: MTT photo/dark cytotoxicity assay with blue light irradiation; assay type: cell-based; conditions: for cell viability (dark cytotoxicity): MTT, FIGS. 3A and 3B, 20 μM printed for BS; for IC50: normoxia, after blue light irradiation, read-out: IC50 (photocytotoxicity); for cancer cell toxicity without light: working concentration; for cell death under blue light irradiation: both normoxia and hypoxia
Protocol: Cell toxicity was evaluated by treating HeLa cells with 10 μM NS and BS solutions, respectively, incubating cells for 30 minutes, and then irradiating blue light (blue LED, 80 mW/cm^2) for 5 minutes. The results are shown in FIGS. 3A to 3C and FIGS. 4A to 4D. Based on the ^1O2 generation efficiency and photostability of BS and NS of FIGS. 3A to 3C, photo/dark cytotoxicity to HeLa cells was observed using MTT (traditional methyl thiazolytetralium) assay. FIGS. 3A and 3B show viability of 85% in BS (20 μM) and 97% in NS. The introduction of the C═S bond leads to a highly efficient ISC process, improving the generation of type I and type II ROS, thereby resulting in high ^1O2 quantum yield as well as O2· production. […] NS induces higher photocytotoxicity than BS by higher oxygen quantum yield and may be utilized as a phototheranostic agent with a low IC50 value in normoxia. Further, in FIG. 3C, NS (3 μM) has a cell viability of 29.6% under a normoxia condition and a cell viability of 36.5% under a hypoxia condition (mixed gas: 5% CO2, 1% O2 and 94% N2) so as to effectively induce photocytotoxicity to HeLa cells.

[3] = Singlet oxygen quantum yield determination; assay type: physicochemical; conditions: determined with respect to Ru(bpy)3^2+; — = not observed
Text: Compounds BO and NO show strong fluorescence (ΦFBO=0.71, ΦF NO=0.28), but ISC is inefficient due to weak spin-orbit coupling (SOC).

HeLa cells [4] = assay: DCFH-DA ROS fluorescence imaging after blue LED irradiation; assay type: cell-based; conditions: 5 μM, DCFH-DA 10 μM, blue LED 5 minutes
Protocol: FIG. 4A is a diagram illustrating a fluorescence image of live HeLa cells after incubation in BS (5 μM) and DCFH-DA (10 μM) for 30 minutes, and FIG. 4C is a diagram illustrating a BS fluorescence image after light irradiation under blue LED light for 5 minutes thereafter (λ=473 nm and λem=490 to 590 nm) according to an example embodiment of the present disclosure in which these compounds were dissolved in DMSO.
FIG. 4B is a diagram illustrating s a fluorescence image of live HeLa cells after incubation in NS (5 μM) and DCFH-DA (10 μM) for 30 minutes according to an example embodiment of the present disclosure, and FIG. 4D is a diagram illustrating an NS fluorescence image after light irradiation under blue LED light for 5 minutes thereafter (λex=473 nm and λem=490 to 590 nm) in which these compounds were dissolved in DMSO.
Finally, their fluorescence is completely recovered after hypochlorite anion (OCl^−) treatment using the OCl^− probe of live HeLa cells. […] It may be confirmed that the C═S group plays an important role in the generation of type I ROS of previously unreported photosensitizers (PS).

[5] = UV-Vis absorption and fluorescence emission spectroscopy; assay type: physicochemical; conditions: in Toluene
Text: The photophysical properties of the collected products were studied by UV-Vis absorption and fluorescence emission spectroscopy, and the results are shown in FIGS. 1A to 1B and Table 1. In the UV-Vis absorption spectrum, BO and NO show absorption peaks in the region of about 380 nm, and BS and NS show absorption maximum values in the region of about 435 nm. The difference in the absorption peak may be confirmed from the shape difference of the HOMO-LUMO of FIG. 2A.

HeLa cells [6] = assay: Bio-imaging of OCl− by confocal fluorescence microscopy; assay type: cell-based; conditions: 10 μM, 10 minutes, then OCl− 10 minutes
Protocol: HeLa cells were treated with 10 μM NS and BS solutions, respectively. Then, HeLa cells were incubated for 10 minutes and then incubated with hypochlorous acid (OCl^−) for 10 minutes to perform hypochlorous acid (OCl^−) detection fluorescence signal and bioimaging.

| Structure (SMILES) | isosbestic point in UV-vis titration with OCl− [1] | selectivity for OCl− among ROS, RNS and metal ions [1] | fluorescence wavelength at which intensity was read [1] | cell viability (dark cytotoxicity) (HeLa cells [2]; HeLa cells) | IC50 (HeLa cells [2]; HeLa cells) | cancer cell toxicity without light (HeLa cells [2]; HeLa cells) | cell death under blue light irradiation (HeLa cells [2]) | ΦΔ (singlet oxygen quantum yield) [3] | ROS generation (DCFH-DA green signal) (HeLa cells [4]) | ΔV (Stock shift) [5] | ε × 10^3 [5] | λems [5] | intracellular OCl− detection (HeLa cells [6]) | ΦF (fluorescence quantum yield) ([5]; Rhodamine 6G as the standard, — = not observed) | cell viability, hypoxia (HeLa cells [2]; HeLa cells, 3 μM, hypoxia condition (5% CO2, 1% O2 and 94% N2), light) | cell viability, normoxia (HeLa cells [2]; HeLa cells, 3 μM, normoxia condition, light) |
| --- | --- | --- | --- | --- | --- | --- | --- | --- | --- | --- | --- | --- | --- | --- | --- | --- |
| S=c1c2cccc3cccc(c32)c2nc3ccccc3n12 [BS] | 403 nm | high selectivity | 505 nm | 85% | 5.81 µM | negligible cancer cell toxicity | rapidly induce cell death | 0.66 | may generate ROS | 66 nm | 10.85 × 10^3 M^−1 cm^−1 | 495 nm | adequately detect OCl^− |  |  |  |
| O=c1c2cccc3cccc(c32)c2nc3ccccc3n12 [BO, reference compound] |  |  |  |  |  |  |  |  |  | 105 nm | 8.54 × 10^3 M^−1 cm^−1 | 488 nm |  | 0.71 |  |  |
| S=c1c2cccc3cccc(c32)c2nc3cc4ccccc4cc3n12 [NS] | 411 nm | high selectivity | 559 nm | 97% | 1.03 µM | negligible cancer cell toxicity | rapidly induce cell death | 0.81 | may generate ROS | 110 nm | 17.87 × 10^3 M^−1 cm^−1 | 551 nm | adequately detect OCl^− |  | 36.5% | 29.6% |
